According to patent US9458110B2, “Phenylpyrazole derivatives as potent ROCK1 and ROCK2 inhibitors” (BRISTOL-MYERS SQUIBB COMPANY, priority 2013, dated 2016):

Key:
[1] = biological target: ROCK2 (Homo sapiens (Human), UniProt O75116); assay: ROCK assay (Caliper LABCHIP peptide phosphorylation), ROCK2; type: biochemical; conditions: 5 μM ATP, 1.5 μM peptide substrate;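 note: reaction stopped with EDTA, then phosphorylated and unphosphorylated peptide resolved by microfluidic electrophoresis, kinase inhibition computed at each compound concentration in dose-response series, DMSO under 2%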
[2] = biological target: ROCK1 (Homo sapiens (Human), UniProt Q13464); assay: ROCK assay (Caliper LABCHIP peptide phosphorylation), ROCK1; type: biochemical; conditions: 5 μM ATP, 1.5 μM peptide substrate;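 note: Read-out is separation of phosphorylated from unphosphorylated peptide, with kinase activity inhibition computed at every concentration of a dose-response series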
ROCK1, sequence (Q13464 whole entry, species assumed): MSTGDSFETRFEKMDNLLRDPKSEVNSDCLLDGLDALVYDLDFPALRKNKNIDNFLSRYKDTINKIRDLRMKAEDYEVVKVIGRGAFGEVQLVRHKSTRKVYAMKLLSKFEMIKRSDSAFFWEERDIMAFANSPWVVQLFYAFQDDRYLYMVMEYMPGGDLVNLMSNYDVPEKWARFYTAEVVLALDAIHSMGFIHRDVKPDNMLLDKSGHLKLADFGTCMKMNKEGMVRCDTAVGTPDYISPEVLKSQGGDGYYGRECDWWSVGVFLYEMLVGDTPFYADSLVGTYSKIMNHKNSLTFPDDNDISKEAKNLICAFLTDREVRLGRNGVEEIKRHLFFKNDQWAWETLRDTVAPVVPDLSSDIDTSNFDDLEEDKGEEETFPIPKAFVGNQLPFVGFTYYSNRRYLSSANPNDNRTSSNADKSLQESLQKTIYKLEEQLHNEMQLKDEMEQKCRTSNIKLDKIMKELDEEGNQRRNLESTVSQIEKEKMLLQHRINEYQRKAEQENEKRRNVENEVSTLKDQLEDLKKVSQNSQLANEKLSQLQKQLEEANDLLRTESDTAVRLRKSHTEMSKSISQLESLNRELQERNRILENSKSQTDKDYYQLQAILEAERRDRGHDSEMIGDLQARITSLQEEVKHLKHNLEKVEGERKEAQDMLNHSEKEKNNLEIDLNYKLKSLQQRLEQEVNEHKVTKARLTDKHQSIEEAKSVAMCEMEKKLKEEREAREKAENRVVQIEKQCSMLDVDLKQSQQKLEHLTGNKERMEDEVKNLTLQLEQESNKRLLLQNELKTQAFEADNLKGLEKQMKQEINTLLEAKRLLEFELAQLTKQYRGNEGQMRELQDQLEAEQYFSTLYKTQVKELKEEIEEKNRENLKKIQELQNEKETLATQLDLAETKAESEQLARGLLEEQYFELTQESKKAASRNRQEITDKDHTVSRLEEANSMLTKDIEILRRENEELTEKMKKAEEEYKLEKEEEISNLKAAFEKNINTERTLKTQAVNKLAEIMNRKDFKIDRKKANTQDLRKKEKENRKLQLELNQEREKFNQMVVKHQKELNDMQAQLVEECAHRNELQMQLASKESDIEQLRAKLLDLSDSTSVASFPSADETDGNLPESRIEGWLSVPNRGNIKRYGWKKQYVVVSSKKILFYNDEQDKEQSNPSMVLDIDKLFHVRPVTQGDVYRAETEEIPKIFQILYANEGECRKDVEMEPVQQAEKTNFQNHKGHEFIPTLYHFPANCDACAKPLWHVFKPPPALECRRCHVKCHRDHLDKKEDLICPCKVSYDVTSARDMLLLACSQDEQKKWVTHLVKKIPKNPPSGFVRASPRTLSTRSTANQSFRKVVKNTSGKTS

ROCK2, sequence (O75116 whole entry, species assumed): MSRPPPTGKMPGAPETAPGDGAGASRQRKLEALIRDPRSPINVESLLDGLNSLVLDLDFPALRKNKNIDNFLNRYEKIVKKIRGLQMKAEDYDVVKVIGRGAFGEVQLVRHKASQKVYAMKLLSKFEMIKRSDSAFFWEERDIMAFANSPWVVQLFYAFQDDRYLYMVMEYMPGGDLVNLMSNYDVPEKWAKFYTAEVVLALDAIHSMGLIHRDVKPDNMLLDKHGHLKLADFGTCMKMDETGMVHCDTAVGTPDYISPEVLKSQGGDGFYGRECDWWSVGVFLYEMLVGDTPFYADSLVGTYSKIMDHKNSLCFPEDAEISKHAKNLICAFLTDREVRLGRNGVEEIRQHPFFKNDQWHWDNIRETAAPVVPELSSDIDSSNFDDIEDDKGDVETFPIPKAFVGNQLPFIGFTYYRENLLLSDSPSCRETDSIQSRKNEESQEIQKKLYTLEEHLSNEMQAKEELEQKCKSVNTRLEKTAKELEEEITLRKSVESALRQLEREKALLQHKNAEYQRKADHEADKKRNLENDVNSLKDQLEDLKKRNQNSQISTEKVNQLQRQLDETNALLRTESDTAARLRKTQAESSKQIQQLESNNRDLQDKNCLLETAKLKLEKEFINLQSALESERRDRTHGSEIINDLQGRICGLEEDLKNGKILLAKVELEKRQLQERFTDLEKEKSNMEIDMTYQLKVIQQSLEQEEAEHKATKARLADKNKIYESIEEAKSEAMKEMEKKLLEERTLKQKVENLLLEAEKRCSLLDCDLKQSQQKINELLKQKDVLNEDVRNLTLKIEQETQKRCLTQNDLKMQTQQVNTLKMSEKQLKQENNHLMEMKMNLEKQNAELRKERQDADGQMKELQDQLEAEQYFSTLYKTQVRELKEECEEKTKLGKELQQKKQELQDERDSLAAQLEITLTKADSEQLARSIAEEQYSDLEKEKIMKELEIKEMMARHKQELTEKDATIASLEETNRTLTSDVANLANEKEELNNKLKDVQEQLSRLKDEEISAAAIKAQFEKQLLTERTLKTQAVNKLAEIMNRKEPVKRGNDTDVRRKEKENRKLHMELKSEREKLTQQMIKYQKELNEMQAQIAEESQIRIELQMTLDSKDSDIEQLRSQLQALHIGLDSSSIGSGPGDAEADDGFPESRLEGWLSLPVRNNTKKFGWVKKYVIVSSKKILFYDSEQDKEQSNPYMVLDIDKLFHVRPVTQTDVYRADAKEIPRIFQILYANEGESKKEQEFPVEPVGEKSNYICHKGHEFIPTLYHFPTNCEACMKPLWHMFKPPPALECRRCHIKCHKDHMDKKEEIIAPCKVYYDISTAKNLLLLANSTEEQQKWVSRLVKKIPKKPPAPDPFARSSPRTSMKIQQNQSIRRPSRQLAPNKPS

Row | Compound | IC50 [1] [nM] | IC50 [2] [nM]
1 | COc1cc(-c2cn[nH]c2)ccc1C(=O)NCc1ccccc1Cl [Example 53, N-(2-Chlorobenzyl)-2-methoxy-4-(1H-pyrazol-4-yl)benzamide] | 6.2 | 11.3
2 | COC[C@@H](NC(=O)c1ccc(-c2cn[nH]c2)c(C(C)O)c1)c1ccccc1 (stereo partly drawn) [Example 277, 3-(1-hydroxyethyl)-N-[(1S)-2-methoxy-1-phenylethyl]-4-(1H-pyrazol-4-yl)benzamide] | 44.2 | 156
3 | COc1cc(-c2cn[nH]c2)ccc1C(=O)N[C@H](C)c1ccc(F)cc1 [Example 206, N-[(1R)-1-(4-fluorophenyl)ethyl]-2-methoxy-4-(1H-pyrazol-4-yl) benzamide] | 2.77 | 7
4 | COc1cc(C(=O)N[C@H](C)c2ccc3ccccc3c2)ccc1-c1cn[nH]c1 [Example 74, (R)-3-methoxy-N-(1-(naphthalen-2-yl)ethyl)-4-(1H-pyrazol-4-yl)benzamide] | 9.18 | 36.3
5 | COc1cccc(CNC(=O)c2ccc(-c3cn[nH]c3)cc2N)c1 [Example 214, 2-amino-N-[(3-methoxyphenyl)methyl]-4-(1H-pyrazol-4-yl)benzamide] | 32.3 | 131
6 | COc1cc(-c2cn[nH]c2)ccc1C(=O)NCc1cccc(C(=O)NC2CCN(C)CC2)c1 [Example 249, 2-methoxy-N-({3-[(1-methylpiperidin-4-yl)carbamoyl]phenyl}methyl)-4-(1H-pyrazol-4-yl)benzamide] | 0.36 | 1.24
7 | COc1cc(-c2cn[nH]c2)ccc1C(=O)N[C@H](CCO)c1ccccc1 [Example 209, N-[(1R)-3-hydroxy-1-phenylpropyl]-2-methoxy-4-(1H-pyrazol-4-yl)benzamide] | 2.78 | 6.55
8 | COc1cc(-c2cn[nH]c2)ccc1C(=O)NC(c1ccccc1F)C(C)(C)O (stereo not shown) [Example 212, N-[1-(2-fluorophenyl)-2-hydroxy-2-methylpropyl]-2-methoxy-4-(1H-pyrazol-4-yl)benzamide] | 7.32 | 37.3
9 | COc1cc(C(=O)NC2(c3ccccc3Cl)CC2)ccc1-c1cn[nH]c1 [Example 2, N-(1-(2-chlorophenyl)cyclopropyl)-3-methoxy-4-(1H-pyrazol-4-yl)benzamide] | 4.73 | 13.9
10 | CC(O)c1cc(C(=O)N[C@H](C)c2ccccc2F)ccc1-c1cn[nH]c1 (stereo partly drawn) [Example 283, N-[(1R)-1-(2-fluorophenyl)ethyl]-3-(1-hydroxyethyl)-4-(1H-pyrazol-4-yl)benzamide] | 5.43 | 50.6
11 | COc1cc(-c2cn[nH]c2)ccc1C(=O)N[C@H](CO)[C@H](O)c1ccccc1 [Example 215, N-[(1R,2R)-1,3-dihydroxy-1-phenylpropan-2-yl]-2-methoxy-4-(1H-pyrazol-4-yl)benzamide] | 23.4 | 64.2
12 | N-(4- chlorobenzyl)- 3-methoxy-4- (1H-pyrazol-4- yl)benzamide [Example 33] | 4.93 | 26.5
13 | COc1cc(C(=O)NC(CCO)c2ccccc2)ccc1-c1cn[nH]c1 (stereo not shown) [Example 145, N-(3-hydroxy-1-phenylpropyl)-3-methoxy-4-(1H-pyrazol-4-yl)benzamide] | 282 | 301
14 | CCC(O)c1cc(C(=O)N[C@H](C)c2ccccc2)ccc1-c1cn[nH]c1 (stereo partly drawn) [Example 286, 3-(1-hydroxypropyl)-N-[(1R)-1-phenylethyl]-4-(1H-pyrazol-4-yl)benzamide] | 190 | 97.6
15 | COc1cc(C(=O)NCc2ccc(Cl)cc2Cl)ccc1-c1cn[nH]c1 [Example 93, N-[(2,4-dichlorophenyl)methyl]-3-methoxy-4-(1H-pyrazol-4-yl)benzamide] | 27.6 | 99.3
16 | COc1cc(C(=O)NCCc2cccc(O)c2)ccc1-c1cn[nH]c1 [Example 124, N-[2-(3-hydroxyphenyl)ethyl]-3-methoxy-4-(1H-pyrazol-4-yl)benzamide] | 7 | 21.5
17 | COc1cc(C(=O)NC(CN2CCOCC2)c2ccccc2)ccc1-c1cn[nH]c1 (stereo not shown) [Example 10, 3-methoxy-N-(2-morpholino-1-phenylethyl)-4-(1H-pyrazol-4-yl)benzamide] | 44.5 | 107
18 | COc1cc(C(=O)NC(CO)c2ccccc2F)ccc1-c1cn[nH]c1 (stereo not shown) [Example 166, N-[1-(2-fluorophenyl)-2-hydroxyethyl]-3-methoxy-4-(1H-pyrazol-4-yl)benzamide] | 2.17 | 7.22
19 | COc1cc(C(=O)NCc2ccc(Cl)cc2SCC(C)C)ccc1-c1cn[nH]c1 [Example 47, N-(4-chloro-2-(isobutylthio)benzyl)-3-methoxy-4-(1H-pyrazol-4-yl)benzamide] | 1320 | > 2000
20 | COC[C@H](NC(=O)c1ccc(-c2cn[nH]c2)c(OC)c1)[C@@H](O)c1ccccc1 [Example 113, N-[(1S,2S)-1-hydroxy-3-methoxy-1-phenylpropan-2-yl]-3-methoxy-4-(1H-pyrazol-4-yl)benzamide] | 330 | 602
21 | COc1cc(-c2cn[nH]c2)ccc1C(=O)NC(CO)c1ccccc1F (stereo not shown) [Example 205, N-[1-(2-fluorophenyl)-2-hydroxyethyl]-2-methoxy-4-(1H-pyrazol-4-yl)benzamide] | 5.62 | 345
22 | COc1cc(-c2cn[nH]c2)ccc1C(=O)NCc1c(F)cccc1F [Example 207, N-[(2,6-difluorophenyl)methyl]-2-methoxy-4-(1H-pyrazol-4-yl)benzamide] | 4.39 | 4.25
23 | COc1cc(C(=O)NCc2ccccc2C)ccc1-c1cn[nH]c1 [Example 23, 3-methoxy-N-(2-methylbenzyl)-4-(1H-pyrazol-4-yl)benzamide] | 2.13 | 7.36
24 | COc1cc(-c2cn[nH]c2)ccc1C(=O)N[C@@H](Cc1ccccc1)[C@H](O)CO [Example 217, N-[(2S,3S)-3,4-dihydroxy-1-phenylbutan-2-yl]-2-methoxy-4-(1H-pyrazol-4-yl)benzamide] | 12.9 | 15.4
25 | COc1cc(C(=O)NC(CCO)c2ccccc2)ccc1-c1cn[nH]c1 (stereo not shown) [Example 146, N-(3-hydroxy-1-phenylpropyl)-3-methoxy-4-(1H-pyrazol-4-yl)benzamide] | 2.17 | 7.8
26 | CC[C@@H](NC(=O)c1ccc(-c2cn[nH]c2)c(OC)c1)c1c(F)cccc1F [Example 264, N-[(1R)-1-(2,6-Difluorophenyl)propyl]-3-methoxy-4-(1H-pyrazol-4-yl)benzamide] | 23.4 | 77.3
27 | COc1cc(C(=O)NCc2ccc(Cl)cc2S(=O)(=O)CC(C)C)ccc1-c1cn[nH]c1 [Example 37, N-(4-chloro-2-(isobutyl-sulfonyl)benzyl)-3-methoxy-4-(1H-pyrazol-4-yl)benzamide] | 1410 | 2440
28 | CC(C)(O)COc1cc(C(=O)N[C@H](CN)c2ccccc2)ccc1-c1cn[nH]c1 [Example 257, N-[(15)-2-amino-1-phenylethyl]-3-(2-hydroxy-2-methylpropoxy)-4-(1H-pyrazol-4-yl)benzamide] | 52.8 | 85.1
29 | COc1cc(C(=O)NCc2cccc(-c3ccccc3)c2)ccc1-c1cn[nH]c1 [Example 18, N-([1,1′-biphenyl]-3-ylmethyl)-3-methoxy-4-(1H-pyrazol-4-yl)benzamide] | 129 | 334
